These results are taken from US7579371B2, “Methods of using [3.2.0] heterocyclic compounds and analogs thereof” (Nereus Pharmaceuticals, Inc., priority 2004, dated 2009).

pEC50: −log10 of the molar value.

Data set [1] concerns NF-κB. The data set can be described thus: NF-κB-mediated luciferase reporter gene assay, HEK293 NF-κB/Luc cells, TNF-α stimulation. The class given is cell-based. Conditions: Homo sapiens, HEK293, read-out: EC50, NF-κB-mediated luciferase activity, 1 hr pretreatment, 6 hours TNF-α. Here is the method: The HEK293 NF-κB/luciferase reporter cell line is a derivative of the human embryonic kidney cell line (ATCC; CRL-1573) and carries a luciferase reporter gene under the regulation of 5× NF-κB binding sites. […] When performing the luciferase assay, the DMEM basal medium was replaced with phenol-red free DMEM basal medium and the G418 was omitted.
For NF-κB-mediated luciferase assays, HEK293 NF-κB/luciferase cells were seeded at 1.5×10^4 cells/well in 90 μl phenol-red free DMEM complete medium into Corning 3917 white opaque-bottom tissue culture plates. For Formulae II-2, II-4, II-5A and II-18, a 400 μM starting dilution was made in 100% DMSO and this dilution was used to generate an 8-point half log dilution series. […] For formula II-20, a 2.5 mM or 8 mM starting dilution was made in 100% DMSO and the final test concentrations ranged from 6.3 μM to 2.0 nM or 20 μM to 6.3 nM respectively. The plates were returned to the incubator for 1 hour. After 1 hr pretreatment, 10 μl of a 50 ng/ml TNF-α solution, prepared in the phenol-red free DMEM medium was added, and the plates were incubated for an additional 6 hours.
At the end of the TNF-α stimulation, 100 μl of Steady Lite HTS luciferase reagent (Packard Bioscience) was added to each well and the plates were left undisturbed for 10 min at room temperature before measuring the luciferase activity. The relative luciferase units (RLU) were measured by using a Fusion microplate fluorometer (Packard Bioscience).
NF-κB inducible luciferase activity was measured at 6 hours.
For orientation: A reporter such as luciferase makes a cellular process visible.

For data set [2], the system named is RAW264.7 cells.

In the case of `C[C@@]12OC(=O)[C@]1([C@@H](O)[C@@H]1C=CCCC1)NC(=O)[C@@H]2CCCl` [Formula II-16, Salinosporamide A], in data set [1], the pEC50 (usually the negative decadic logarithm of the EC50, by convention in mol/L) was about 8.15. In data set [2], the pEC50 is 8.44 and the “increase in the viability of LeTx-treated cells compared to LeTx treatment alone” value worked out at 10 fold.
